Data: patent US20240197852A1, “PSORALEN-I[…] G[…] AND METHODS THEREOF” (Wake Forest University Health Sciences, priority 2021, published 2024)

Legend:
GC strain FA1090 [1] = assay: two rounds of AMT and UVA on GC, plating on GC agar for survivors; assay type: cell-based, Neisseria gonorrhoeae; conditions: thirty 1 ml cultures, approximately 3×10^10 cells; 20 μg/ml AMT and 1 Joule/cm^2 UVA two times
Method: (§1) Psoralen Inactivation: GC strains were grown overnight on GC agar plates. Overnight growth (between 16 and 18 hours) was resuspended in 5 mls of GCP and OD600 was adjusted to 1.0. Cells were diluted 2:25 in 5 mls GCP supplemented with sodium bicarbonate and Isovitalex and grown at 37 °C in the shaker for 7 hours at which time AMT was added and the cultures were incubated in the shaker for another hour. All bacterial cultures were then moved into 6 well cell culture plates and treated with 1 Joule/cm^2 UV light using an Analytik Jena Crosslinker with UVA light source (365 nm) (model #CL-1000L, Upland, CA). Cultures were returned to tubes and a second dose of AMT was added. Cultures were shaken for 1 hour at 37 °C and then crosslinked again at the same UV dose. Samples were washed in PBS and then plated on GC agar and incubated for two days at 37 °C and 5% CO2 to measure growth as an indication of the presence of residual CFU.
To get consistent inactivation of GC we treated FA1090 with two rounds of AMT and UVA. Thirty separate 1 ml cultures of FA1090 were given 20 μg/ml AMT and irradiated with 1 Joule/cm^2 UVA two times and plated onto 30 GC agar plates and grown for two days.

E. coli strain H10407 [2] = assay: two doses of AMT and two rounds of UVA on E. coli, plating for surviving CFU; assay type: cell-based; conditions: for CFUs of treated cells / Percent Survival: 1 Joule/cm^2 two times
Method: as §1
(§2) Early experiments on the effects of different doses of 8-MOP, AMT, and of UV on bacterial cells were done in E. coli strain H10407 due to its relative ease and speed of growth. H10407 was diluted 1:500 in LB and grown for 5 hours at 37 °C in a shaker. Psoralen inactivation was performed as described for GC. Bacterial cells were washed and inoculated into LB broth or plated onto LB agar to measure overnight growth as an indication of the presence of residual CFU.
The desire was a method to inactivate the culture consistently with AMT. E. coli strain H10407 was treated with AMT and UVA as before, but then immediately retreated the same culture once again with AMT at the same dosage, allowing the culture to shake for 1 hour, and then crosslinking it a second time and plating the cells to see which cultures would still have surviving cells capable of growth. By plating the cells and comparing to the CFUs of an untreated culture we were able to determine a percentage of surviving cells. Multiple cultures were treated at every drug dose. (See Table 2)
Thirty separate 1 ml cultures of H10407 were grown, treated with AMT at a dose of 40 μg/ml two times, and given 1 Joule/cm^2 of UVA two times and allowed to grow overnight on LB plates. […] LB plates were kept for multiple days to ensure there was no later growth.

GC strain FA1090 [3] = assay: one round of AMT and UV light crosslinking of GC, plating, percent cell survival; assay type: cell-based, Neisseria gonorrhoeae; conditions: 1 Joule/cm^2
Method: as §1
(§3) Evaluating the use of a GC uvrB mutants: In order to examine the effect of a mutation in the uvrB locus that affects DNA repair GC strains FA1090 and its derivatives 1-81-S2 (uvrB:kan #4 Opa+) and 1-81-S2 (uvrB:kan #9) were tested. uvrB mutants have been used by other labs to reduce the amount of 8-MOP or S-59 needed to inactivate bacterial cells and to therefore leave them with higher metabolic activity (KBMA). FA1090 and mutant strains were treated with varying doses of AMT, grown for one hour at 37 °C, and then irradiated with UVA at 1 Joule/cm^2. The entire culture was washed and plated onto a single plate. Surviving colonies were counted and compared to live cultures to determine percent cell survival. Multiple cultures of each strain were tested at each dosage level. (see Table 3).

[4] = tested on: FA1090 uvrB mutant strain 1-81-S2 (uvrB:kan #4 Opa+); assay: one round of AMT and UV light crosslinking of GC uvrB mutant, plating, percent cell survival; assay type: cell-based, Neisseria gonorrhoeae; conditions: 1 Joule/cm^2
Method: as §1, §3

[5] = tested on: FA1090 uvrB mutant strain 1-81-S2 (uvrB:kan #9); assay: as above; assay type: cell-based, Neisseria gonorrhoeae; conditions: 1 Joule/cm^2
Method: as §1, §3

E. coli strain H10407 [6] = assay: AMT and UVA crosslinking of E. coli (one round), overnight growth in LB broth; assay type: cell-based
Method: as §1, §2
We then used the psoralen derivative 4-aminomethyl-4,5′, 8-trimethylpsoralen (AMT). Multiple separate cultures of the E. coli strain H10407 were treated with doses of psoralen derivative 4-aminomethyl-4,5′, 8-trimethylpsoralen (AMT) ranging from 0 to 60 μg/ml and treated with 1 Joule/cm^2, 7 Joules/cm^2, or 10 Joules/cm^2 UVA light and then diluted into LB broth and grown overnight. […] Control cultures that received no treatment always grew up overnight as did cultures that only received AMT and no UVA or UVA treatment with no AMT. Heat killed cultures never grew up overnight. […] (See Table 1). Cultures that had no growth were left to grow for 3 more days to make sure that no growth came up later.

E. coli strain H10407 [7] = assay: 8-MOP and UVA crosslinking of E. coli, overnight growth in LB broth; assay type: cell-based; conditions: 50, 60, 70, or 80 μg/ml 8-MOP; 1 Joule/cm^2 or 7 Joules/cm^2 UVA
Method: as §2
Inactivation of E. coli with AMT+UVA light: Other labs had previously reported the use of the psoralen derivatives 8-MOP or S-59/psoralen and UVA light to inactivate bacterial cultures containing DNA repair mutations. In order to determine if a bacterial culture not containing a DNA repair mutation with 8-MOP and UVA crosslinking could be inactivated, E. coli strain H10407 was used. Multiple separate cultures of this strain were treated with 50, 60, 70, or 80 μg/ml 8-MOP and treated with 1 Joule/cm^2 or 7 Joules/cm^2 UVA light and then diluted into LB broth and grown overnight. If even one cell in each culture survived the treatment with 8-MOP and UVA, it was expected to see growth in the overnight culture. Control cultures that received UVA but no 8-MOP, 8-MOP but no UVA, and no UVA or 8-MOP were also included. Heat killed cultures were diluted and grown overnight as a negative control.

Cc1oc2c(C)c3oc(=O)cc(C)c3cc2c1CN [AMT, 4-aminomethyl-4,5′, 8-trimethylpsoralen]
survivors after plating on GC agar, two days (GC strain FA1090 [1]): No survivors were detected
CFUs of treated cells (E. coli strain H10407 [2]; AMT 10 ug/ml two doses): 79
Percent Survival (E. coli strain H10407 [2]; AMT 10 ug/ml two doses): 2.6 × 10^−6%
CFUs of treated cells (E. coli strain H10407 [2]; AMT 30 ug/ml two doses): 2
Percent Survival (E. coli strain H10407 [2]; AMT 30 ug/ml two doses): 5 × 10^−8%
CFUs of treated cells (E. coli strain H10407 [2]; AMT 35 ug/ml two doses): 55
Percent Survival (E. coli strain H10407 [2]; AMT 35 ug/ml two doses): 6.1 × 10^−7%
CFUs of treated cells (E. coli strain H10407 [2]; AMT 40 ug/ml two doses): 0
Percent Survival (E. coli strain H10407 [2]; AMT 40 ug/ml two doses): 0%
surviving cells capable of growth (E. coli strain H10407 [2]; thirty 1 ml cultures, approximately 3.7×10^10 cells, 40 μg/ml AMT and 1 Joule/cm^2 UV two times): no cells still capable of growth
Percent Cell Survival (GC strain FA1090 [3]; AMT 2 ug/ml): 7.85 × 10^−6%
Percent Cell Survival (GC strain FA1090 [3]; AMT 5 ug/ml): 1.23 × 10^−6%
Percent Cell Survival (GC strain FA1090 [3]; AMT 7 ug/ml): 0%
Percent Cell Survival (GC strain FA1090 [3]; AMT 10 ug/ml): 0%
Percent Cell Survival (GC strain FA1090 [3]; AMT 30 ug/ml): 0%
Percent Cell Survival (GC strain FA1090 [3]; AMT 50 ug/ml): 0%
Percent Cell Survival (GC strain FA1090 [3]; AMT 70 ug/ml): 2.56 × 10^−7%
Percent Cell Survival (GC strain FA1090 [3]; AMT 100 ug/ml): 0%
Percent Cell Survival ([4]; AMT 2 ug/ml): 5.56 × 10^−8%
Percent Cell Survival ([4]; AMT 5 ug/ml): 0%
Percent Cell Survival ([4]; AMT 7 ug/ml): 0%
Percent Cell Survival ([4]; AMT 10 ug/ml): 0%
Percent Cell Survival ([4]; AMT 30 ug/ml): 0%
Percent Cell Survival ([4]; AMT 50 ug/ml): 0%
Percent Cell Survival ([4]; AMT 70 ug/ml): 1.11 × 10^−6%
Percent Cell Survival ([4]; AMT 100 ug/ml): 0%
Percent Cell Survival ([5]; AMT 2 ug/ml): 7.23 × 10^−7%
Percent Cell Survival ([5]; AMT 5 ug/ml): 4.0 × 10^−7%
Percent Cell Survival ([5]; AMT 7 ug/ml): 6.3 × 10^−8%
Percent Cell Survival ([5]; AMT 10 ug/ml): 0%
Percent Cell Survival ([5]; AMT 30 ug/ml): 0%
Percent Cell Survival ([5]; AMT 50 ug/ml): 0%
Percent Cell Survival ([5]; AMT 70 ug/ml): 0%
Percent Cell Survival ([5]; AMT 100 ug/ml): 0%
Percentage of cultures inactivated (E. coli strain H10407 [6]; AMT 20 ug/ml, 1 Joule/cm^2): 0%
number of cultures inactivated (no overnight growth) / total cultures treated (E. coli strain H10407 [6]; AMT 20 ug/ml, 1 Joule/cm^2): 0/5
Percentage of cultures inactivated (E. coli strain H10407 [6]; AMT 20 ug/ml, 7 Joules/cm^2): 67%
number of cultures inactivated (no overnight growth) / total cultures treated (E. coli strain H10407 [6]; AMT 20 ug/ml, 7 Joules/cm^2): 2/3
Percentage of cultures inactivated (E. coli strain H10407 [6]; AMT 30 ug/ml, 1 Joule/cm^2): 0%
number of cultures inactivated (no overnight growth) / total cultures treated (E. coli strain H10407 [6]; AMT 30 ug/ml, 1 Joule/cm^2): 0/5
Percentage of cultures inactivated (E. coli strain H10407 [6]; AMT 30 ug/ml, 7 Joules/cm^2): 33%
number of cultures inactivated (no overnight growth) / total cultures treated (E. coli strain H10407 [6]; AMT 30 ug/ml, 7 Joules/cm^2): 1/3
Percentage of cultures inactivated (E. coli strain H10407 [6]; AMT 40 ug/ml, 1 Joule/cm^2): 60%
number of cultures inactivated (no overnight growth) / total cultures treated (E. coli strain H10407 [6]; AMT 40 ug/ml, 1 Joule/cm^2): 3/5
Percentage of cultures inactivated (E. coli strain H10407 [6]; AMT 50 ug/ml, 1 Joule/cm^2): 82%
number of cultures inactivated (no overnight growth) / total cultures treated (E. coli strain H10407 [6]; AMT 50 ug/ml, 1 Joule/cm^2): 9/11
Percentage of cultures inactivated (E. coli strain H10407 [6]; AMT 50 ug/ml, 7 Joules/cm^2): 78%
number of cultures inactivated (no overnight growth) / total cultures treated (E. coli strain H10407 [6]; AMT 50 ug/ml, 7 Joules/cm^2): 7/9
Percentage of cultures inactivated (E. coli strain H10407 [6]; AMT 50 ug/ml, 10 Joules/cm^2): 80%
number of cultures inactivated (no overnight growth) / total cultures treated (E. coli strain H10407 [6]; AMT 50 ug/ml, 10 Joules/cm^2): 12/15
Percentage of cultures inactivated (E. coli strain H10407 [6]; AMT 60 ug/ml, 1 Joule/cm^2): 80%
number of cultures inactivated (no overnight growth) / total cultures treated (E. coli strain H10407 [6]; AMT 60 ug/ml, 1 Joule/cm^2): 4/5
inactivation of cultures (overnight growth) (E. coli strain H10407 [6]; AMT up to 60 μg/ml, 1, 7 or 10 Joules/cm^2 UVA, one round): sometimes completely inactivated

COc1c2occc2cc2ccc(=O)oc12 [8-MOP, 8-methoxypsoralen]
inactivation of cultures (overnight growth) (E. coli strain H10407 [7]): not inactivated
